Measurements from patent US20090082266A1, “CONJUGATE OF WATER-SOLUBLE HYALURONIC ACID MODIFICATION PRODUCT WITH GLP-A ANALOGUE” (priority 2005, published 2009).

How the values were obtained:
[1] = in vivo, iv; cited from earlier work
[2] = test system: BKS. Cg −+Lepr^db/+Lepr^db/Jcl mice; assay: Oral glucose tolerance test, subcutaneous administration (Example 6-5); type: in vivo; settings: 3000 μg/kg sc, AUC up to 2 hours, mean
Experimental: After 8 weeks old male BKS. Cg −+Lepr^db/+Lepr^db/Jcl mice (Japan CLEA Co. Ltd.) were fasted overnight to 24 hours, the HA-GLP-1 analogue 2 conjugate solution, which was obtained in Example 6-2 and diluted with solvent Z (at a dose as peptide, 300 μg/kg), or solvent Z was subcutaneously administered to the mice. After 6, 24 or 48 hours of the subcutaneous administration, 50% glucose solution (Otsuka Pharamaceutical Co. Ltd.) was orally administered at a dose of 3 g glucose/kg. […] After 2 minutes or 4 hours and 2 minutes of the subcutaneous administration (in the case of solvent Z, after 1 or 5 hours) 50% glucose solution was orally administered at a dose of 3 g glucose/kg. Tests were carried out on groups consisting of 6 mice per group.
(§1) Before the glucose administration (0 hour), 0.5, 1 and 2 hours after the administration, blood was collected from the tail, and the blood glucose level was measured by an enzymatic assay (hexokinase method; Reagent, Autosera S GLU (Daiichi Pure Chemicals Co. Ltd.); Instrument, BioMajesty JCA-BM1250 (JEOL Co. Ltd.)).
The blood glucose lowering rate was calculated according to the formula described in Example 5-4.

[3] = test system: BKS. Cg −+Lepr^db/+Lepr^db/Jcl mice; assay: Oral glucose tolerance test, intravenous administration (Example 5-4); type: in vivo; settings: glucose 3 g/kg orally 1 minute later, AUC up to 4 hours, mean
Experimental: After 8 weeks old male BKS. Cg −+Lepr^db/+Lepr^db/Jcl mice (Japan CLEA Co. Ltd.) were fasted overnight, the HA-GLP-1 analogue 1 conjugate solution, which was obtained in Example 5-2 and diluted with solvent Z (at doses as peptide, 1.5 μg/kg, 15 μg/kg or 150 μg/kg), or solvent Z was intravenously administered to the mice. After 1 minute of the intravenous administration, 50% glucose solution (Otsuka Pharamaceutical Co. Ltd.) was orally administered at a dose of 3 g glucose/kg. […] After 1 minute of the intravenous administration, 50% glucose solution was orally administered at a dose of 3 g glucose/kg. Tests were carried out on groups consisting of 6 mice per group.
as §1, with “0.5, 1, 2” for “0.5, 1”, “and 4” for “and 2”
The blood glucose lowering rate was calculated according to the following formula.

Row | Substance | half life [1] [min] | Blood glucose lowering rate (%) ([2]; glucose 3 g/kg orally 2 Minutes after administration) | Blood glucose lowering rate (%) ([2]; glucose 3 g/kg orally 4 Hour 2 Minutes after administration) | Blood glucose lowering rate (%) ([3]; 150 μg/kg iv (conjugate: as peptide)) | Blood glucose lowering rate (%) ([3]; 1500 μg/kg iv)
1 | GLP-1 analogue 0: variant of native GLP-1 (human, 7-37) in which the second (position 8) alanine was converted to glycine (HGEGTFTSDVSSYLEGQAAKEFIAWLVKGRG; Glucagon-like peptide 1(7-37); UniProt P01275 98-128, looked up, variant A8G) | 1 to 5 | 102 | 18 | – | –
2 | GLP-1: native GLP-1 (Human, 7-37; Peptide Institute, Inc.) | – | – | – | 15 | 60
